# Measurements: PubChem BioAssay (NCI)
#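 Interpolation was linear, between the two tested concentrations surrounding the appropriate level; five concentrations were tested over 48 hours in 96-well plates. TGI is the concentration that stops growth completely.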
# Tests used:
# Assay in all cases: NCI tumour cell line growth inhibition, 48 h
# 786-0 renal = system: 786-0 renal
# A498 renal = system: A498 renal
# A549 NSCLC = system: A549 NSCLC
# ACHN renal = system: ACHN renal
# CAKI-1 renal = system: CAKI-1 renal
# CCRF-CEM leukemia = system: CCRF-CEM leukemia
# COLO 205 colon = system: COLO 205 colon
# DLD-1 colon = system: DLD-1 colon
# DMS 114 small cell lung = system: DMS 114 small cell lung
# EKVX NSCLC = system: EKVX NSCLC
# HCC-2998 colon = system: HCC-2998 colon
# HCT-116 colon = system: HCT-116 colon
# HCT-15 colon = system: HCT-15 colon
# HL-60(TB) leukemia = system: HL-60(TB) leukemia
# HOP-62 NSCLC = system: HOP-62 NSCLC
# HT29 colon = system: HT29 colon
# IGROV1 ovarian = system: IGROV1 ovarian
# K-562 leukemia = system: K-562 leukemia
# M14 melanoma = system: M14 melanoma
# M19-MEL melanoma = system: M19-MEL melanoma
# MALME-3M melanoma = system: MALME-3M melanoma
# MOLT-4 leukemia = system: MOLT-4 leukemia
# NCI-H226 lung = system: NCI-H226 lung
# NCI-H23 lung = system: NCI-H23 lung
# NCI-H460 lung = system: NCI-H460 lung
# NCI-H522 lung = system: NCI-H522 lung
# OVCAR-3 ovarian = system: OVCAR-3 ovarian
# OVCAR-4 ovarian = system: OVCAR-4 ovarian
# OVCAR-5 ovarian = system: OVCAR-5 ovarian
# OVCAR-8 ovarian = system: OVCAR-8 ovarian
# RPMI-8226 leukemia = system: RPMI-8226 leukemia
# SF-268 CNS = system: SF-268 CNS
# SF-295 CNS = system: SF-295 CNS
# SK-MEL-2 melanoma = system: SK-MEL-2 melanoma
# SK-MEL-28 melanoma = system: SK-MEL-28 melanoma
# SK-MEL-5 melanoma = system: SK-MEL-5 melanoma
# SK-OV-3 ovarian = system: SK-OV-3 ovarian
# SN12C renal = system: SN12C renal
# SNB-19 CNS = system: SNB-19 CNS
# SNB-75 CNS = system: SNB-75 CNS
# SNB-78 CNS = system: SNB-78 CNS
# SR leukemia = system: SR leukemia
# SW-620 colon = system: SW-620 colon
# TK-10 renal = system: TK-10 renal
# U251 CNS = system: U251 CNS
# UACC-257 melanoma = system: UACC-257 melanoma
# UACC-62 melanoma = system: UACC-62 melanoma
# UO-31 renal = system: UO-31 renal
# DMS 273 small cell lung = system: DMS 273 small cell lung
# HOP-18 NSCLC = system: HOP-18 NSCLC
# HOP-92 NSCLC = system: HOP-92 NSCLC
# KM12 colon = system: KM12 colon
# LXFL 529 NSCLC = system: LXFL 529 NSCLC
# SF-539 CNS = system: SF-539 CNS
# BT-549 breast = system: BT-549 breast
# DU-145 prostate = system: DU-145 prostate
# HS 578T breast = system: HS 578T breast
# LOX IMVI melanoma = system: LOX IMVI melanoma
# MCF7 breast = system: MCF7 breast
# MDA-MB-231 breast = system: MDA-MB-231 breast
# MDA-MB-435 = system: MDA-MB-435
# MDA-N = system: MDA-N
# NCI/ADR-RES ovarian = system: NCI/ADR-RES ovarian
# PC-3 prostate = system: PC-3 prostate
# RXF 393 renal = system: RXF 393 renal
# T-47D breast = system: T-47D breast
smiles,measurement,setting,value
O=c1[nH]c(/C=C(\O)c2ccncc2)nc2ccccc12,TGI,786-0 renal,> 100 µM
same,TGI,A498 renal,> 100 µM
same,TGI,A549 NSCLC,> 100 µM
same,TGI,ACHN renal,> 100 µM
same,TGI,CAKI-1 renal,> 100 µM
same,TGI,CCRF-CEM leukemia,> 100 µM
same,TGI,COLO 205 colon,> 100 µM
same,TGI,DLD-1 colon,> 100 µM
same,TGI,DMS 114 small cell lung,> 100 µM
same,TGI,EKVX NSCLC,> 100 µM
same,TGI,HCC-2998 colon,> 100 µM
same,TGI,HCT-116 colon,> 100 µM
same,TGI,HCT-15 colon,> 100 µM
same,TGI,HL-60(TB) leukemia,> 100 µM
same,TGI,HOP-62 NSCLC,> 100 µM
same,TGI,HT29 colon,> 100 µM
same,TGI,IGROV1 ovarian,> 100 µM
same,TGI,K-562 leukemia,> 100 µM
same,TGI,M14 melanoma,> 100 µM
same,TGI,M19-MEL melanoma,> 100 µM
same,TGI,MALME-3M melanoma,> 100 µM
same,TGI,MOLT-4 leukemia,> 100 µM
same,TGI,NCI-H226 lung,> 100 µM
same,TGI,NCI-H23 lung,> 100 µM
same,TGI,NCI-H460 lung,> 100 µM
same,TGI,NCI-H522 lung,> 100 µM
same,TGI,OVCAR-3 ovarian,> 100 µM
same,TGI,OVCAR-4 ovarian,> 100 µM
same,TGI,OVCAR-5 ovarian,> 100 µM
same,TGI,OVCAR-8 ovarian,> 100 µM
same,TGI,RPMI-8226 leukemia,> 100 µM
same,TGI,SF-268 CNS,> 100 µM
same,TGI,SF-295 CNS,> 100 µM
same,TGI,SK-MEL-2 melanoma,> 100 µM
same,TGI,SK-MEL-28 melanoma,> 100 µM
same,TGI,SK-MEL-5 melanoma,> 100 µM
same,TGI,SK-OV-3 ovarian,> 100 µM
same,TGI,SN12C renal,> 100 µM
same,TGI,SNB-19 CNS,> 100 µM
same,TGI,SNB-75 CNS,> 100 µM
same,TGI,SNB-78 CNS,> 100 µM
same,TGI,SR leukemia,> 100 µM
same,TGI,SW-620 colon,> 100 µM
same,TGI,TK-10 renal,> 100 µM
same,TGI,U251 CNS,> 100 µM
same,TGI,UACC-257 melanoma,> 100 µM
same,TGI,UACC-62 melanoma,> 100 µM
same,TGI,UO-31 renal,> 100 µM
N#Cc1c2nc3ccccc3nc2n2ccc3ccccc3c12,TGI,786-0 renal,> 100 µM
same,TGI,A549 NSCLC,> 100 µM
same,TGI,ACHN renal,> 100 µM
same,TGI,CCRF-CEM leukemia,> 100 µM
same,TGI,COLO 205 colon,> 100 µM
same,TGI,DLD-1 colon,> 100 µM
same,TGI,DMS 114 small cell lung,> 100 µM
same,TGI,DMS 273 small cell lung,> 100 µM
same,TGI,EKVX NSCLC,> 100 µM
same,TGI,HCC-2998 colon,> 100 µM
same,TGI,HCT-116 colon,> 100 µM
same,TGI,HCT-15 colon,> 100 µM
same,TGI,HL-60(TB) leukemia,> 100 µM
same,TGI,HOP-18 NSCLC,> 100 µM
same,TGI,HOP-92 NSCLC,> 100 µM
same,TGI,HT29 colon,> 100 µM
same,TGI,IGROV1 ovarian,> 100 µM
same,TGI,K-562 leukemia,> 100 µM
same,TGI,KM12 colon,> 100 µM
same,TGI,LXFL 529 NSCLC,> 100 µM
same,TGI,M14 melanoma,> 100 µM
same,TGI,M19-MEL melanoma,> 100 µM
same,TGI,MALME-3M melanoma,> 100 µM
same,TGI,MOLT-4 leukemia,> 100 µM
same,TGI,NCI-H226 lung,> 100 µM
same,TGI,NCI-H23 lung,> 100 µM
same,TGI,NCI-H460 lung,> 100 µM
same,TGI,NCI-H522 lung,> 100 µM
same,TGI,OVCAR-3 ovarian,> 100 µM
same,TGI,OVCAR-4 ovarian,> 100 µM
same,TGI,OVCAR-5 ovarian,> 100 µM
same,TGI,OVCAR-8 ovarian,> 100 µM
same,TGI,RPMI-8226 leukemia,> 100 µM
same,TGI,SF-268 CNS,> 100 µM
same,TGI,SF-295 CNS,> 100 µM
same,TGI,SF-539 CNS,> 100 µM
same,TGI,SK-MEL-2 melanoma,> 100 µM
same,TGI,SK-MEL-28 melanoma,> 100 µM
same,TGI,SK-MEL-5 melanoma,> 100 µM
same,TGI,SK-OV-3 ovarian,> 100 µM
same,TGI,SN12C renal,> 100 µM
same,TGI,SNB-19 CNS,> 100 µM
same,TGI,SNB-75 CNS,> 100 µM
same,TGI,SNB-78 CNS,> 100 µM
same,TGI,TK-10 renal,> 100 µM
same,TGI,U251 CNS,> 100 µM
same,TGI,UACC-257 melanoma,> 100 µM
same,TGI,UO-31 renal,> 100 µM
COC(=O)[C@@H]1C[C@]2(CC=C(C)C)c3ccccc3N(S(=O)(=O)c3ccccc3)[C@@H]2N1C(=O)OC,TGI,786-0 renal,> 100 µM
same,TGI,A549 NSCLC,> 100 µM
same,TGI,ACHN renal,> 100 µM
same,TGI,BT-549 breast,> 100 µM
same,TGI,CAKI-1 renal,> 100 µM
same,TGI,CCRF-CEM leukemia,> 100 µM
same,TGI,COLO 205 colon,> 100 µM
same,TGI,DU-145 prostate,> 100 µM
same,TGI,EKVX NSCLC,27.5 µM
same,TGI,HCC-2998 colon,40.1 µM
same,TGI,HCT-116 colon,> 100 µM
same,TGI,HCT-15 colon,55.8 µM
same,TGI,HL-60(TB) leukemia,33.5 µM
same,TGI,HOP-62 NSCLC,> 100 µM
same,TGI,HOP-92 NSCLC,> 100 µM
same,TGI,HS 578T breast,66.9 µM
same,TGI,HT29 colon,> 100 µM
same,TGI,K-562 leukemia,> 100 µM
same,TGI,KM12 colon,> 100 µM
same,TGI,LOX IMVI melanoma,> 100 µM
same,TGI,MALME-3M melanoma,> 100 µM
same,TGI,MCF7 breast,48.5 µM
same,TGI,MDA-MB-231 breast,> 100 µM
same,TGI,MDA-MB-435,45 µM
same,TGI,MDA-N,> 100 µM
same,TGI,MOLT-4 leukemia,> 100 µM
same,TGI,NCI-H226 lung,89.1 µM
same,TGI,NCI-H23 lung,> 100 µM
same,TGI,NCI-H460 lung,94 µM
same,TGI,NCI-H522 lung,67.3 µM
same,TGI,NCI/ADR-RES ovarian,83.1 µM
same,TGI,OVCAR-3 ovarian,> 100 µM
same,TGI,OVCAR-4 ovarian,> 100 µM
same,TGI,OVCAR-5 ovarian,> 100 µM
same,TGI,OVCAR-8 ovarian,86.5 µM
same,TGI,PC-3 prostate,> 100 µM
same,TGI,RPMI-8226 leukemia,42.6 µM
same,TGI,RXF 393 renal,43.9 µM
same,TGI,SF-268 CNS,99.3 µM
same,TGI,SF-295 CNS,> 100 µM
same,TGI,SF-539 CNS,86.3 µM
same,TGI,SK-MEL-2 melanoma,34.3 µM
same,TGI,SK-MEL-28 melanoma,> 100 µM
same,TGI,SK-MEL-5 melanoma,26 µM
same,TGI,SK-OV-3 ovarian,> 100 µM
same,TGI,SN12C renal,> 100 µM
same,TGI,SNB-19 CNS,> 100 µM
same,TGI,SNB-75 CNS,38.2 µM
same,TGI,SR leukemia,99.3 µM
same,TGI,SW-620 colon,> 100 µM
same,TGI,T-47D breast,> 100 µM
same,TGI,TK-10 renal,> 100 µM
same,TGI,U251 CNS,41.8 µM
same,TGI,UACC-257 melanoma,51.6 µM
same,TGI,UACC-62 melanoma,51.8 µM
same,TGI,UO-31 renal,> 100 µM
